Assay results: ChEMBL document CHEMBL5303304, “EUbOPEN Chemogenomics Library - IncuCyte” (2023)
Where “and” joins values, the source holds several entries; their conditions need not be identical. Equal entries are not always repeated.

Tests used:
Format in all cases: toxicity, cell-based
[1] = test system: Fibroblast; assay: Incucyte cell viability with human fibroblast; settings: 10 µM, compound concentration 10 uM
[2] = test system: U2OS; assay: Incucyte cell viability with U2OS; settings: human, 10 µM, compound concentration 10 uM
[3] = test system: HEK-293T; assay: Incucyte cell viability with HEK293T; settings: human, 10 µM, compound concentration 10 uM
Note: unitless GR value; below 1 slowed growth and below 0 cell loss.

| SMILES | Growth Rate ([1]; 12 h, replicate number 1) | Growth Rate ([1]; 18 h, replicate number 1) | Growth Rate ([1]; 18 h, replicate number 2) | Growth Rate ([1]; 24 h, replicate number 1) | Growth Rate ([1]; 24 h, replicate number 2) | Growth Rate ([2]; 12 h, replicate number 2) | Growth Rate ([2]; 18 h, replicate number 2) | Growth Rate ([3]; 0 h, replicate number 1) | Growth Rate ([3]; 6 h, replicate number 2) | Growth Rate ([3]; 12 h, replicate number 1) | Growth Rate ([3]; 24 h, replicate number 2) | Growth Rate ([1]; 6 h, replicate number 2) | Growth Rate ([1]; 12 h, replicate number 2) | Growth Rate ([2]; 6 h, replicate number 1) | Growth Rate ([2]; 12 h, replicate number 1) | Growth Rate ([2]; 18 h, replicate number 1) | Growth Rate ([2]; 24 h, replicate number 1) | Growth Rate ([3]; 18 h, replicate number 1) | Growth Rate ([3]; 24 h, replicate number 1) | Growth Rate ([3]; 18 h, replicate number 2) | also measured |
| --- | --- | --- | --- | --- | --- | --- | --- | --- | --- | --- | --- | --- | --- | --- | --- | --- | --- | --- | --- | --- | --- |
| N[C@@H](Cn1cc(F)c(=O)[nH]c1=O)C(=O)O | -0.98 | 0.16 | 0.82 | 0.97 | 0.99 | 0.81 | 0.8 | 0.81 | 0.86 | 0.99 | 0.96 | – | – | – | – | – | – | – | – | – | Growth Rate ([2]; 0 h, replicate number 1): 0.45; Growth Rate ([2]; 6 h, replicate number 2): 0.7; Growth Rate ([2]; 24 h, replicate number 2): 0.83; Growth Rate ([3]; 6 h, replicate number 1): 0.82 |
| O=C1CCCN1CCNc1nc(Nc2ccc(Cl)c(Cl)c2)ncc1C(F)(F)F | 0.62 | 0.65 | 0.48 | 0.64 | 0.45 | -0.25 | – | -0.87 | – | – | – | 0.95 | 0.41 | 0.32 | 0.24 | 0.25 | 0.37 | 0.89 | 0.78 | – | Growth Rate ([2]; 0 h, replicate number 1): -1; Growth Rate ([3]; 0 h, replicate number 2): -1 |
| C[C@@H]1CC(=O)N(C2CC2)N=C1c1ccc(NC(=O)N2Cc3ccncc3C2)cc1 | – | – | 0.85 | – | 0.81 | – | – | 0.95 | 0.39 | 0.41 | 0.32 | -0.07 | 0.57 | 0.59 | 0.94 | – | 0.95 | 0.46 | 0.28 | 0.53 | Growth Rate ([1]; 0 h, replicate number 1): -0.95; Growth Rate ([1]; 0 h, replicate number 2): -0.77; Growth Rate ([1]; 6 h, replicate number 1): 0.8; Growth Rate ([3]; 0 h, replicate number 2): -0.07; Growth Rate ([3]; 6 h, replicate number 1): 0.41; Growth Rate ([3]; 12 h, replicate number 2): 0.67 |
| CC(=O)Oc1ccc2c(c1)[C@@]1(C)CCC[C@](C)(C(=O)OC(=O)[C@@]3(C)CCC[C@]4(C)c5cc(OC(C)=O)ccc5CC[C@@H]34)[C@@H]1CC2 [ACETYL PODOCARPIC ACID ANHYDRIDE] | – | 0.83 | 0.61 | 0.96 | 0.62 | 0.76 | 0.96 | 0.44 | 0.34 | – | 0.57 | 0.4 | 0.33 | 0.6 | 0.57 | 0.73 | 0.84 | 0.8 | – | 0.46 | Growth Rate ([1]; 0 h, replicate number 1): 0.14; Growth Rate ([2]; 0 h, replicate number 1): -0.55; Growth Rate ([2]; 0 h, replicate number 2): 0.76; Growth Rate ([2]; 6 h, replicate number 2): 0.92; Growth Rate ([3]; 0 h, replicate number 2): 0.84; Growth Rate ([3]; 12 h, replicate number 2): 0.36 |
| Fc1cccc(-n2cnc3c(NCc4nc5ccc(F)c(F)c5[nH]4)nc(N4CCOCC4)nc32)c1 | 0.02 | 0.04 | -0.03 | -0.01 | 0.03 | – | 0.61 | -0.62 | -0.21 | -0.36 | -0.25 | -0.22 | -0.11 | 0.56 | 0.06 | -0.23 | -0.23 | -0.28 | -0.21 | -0.31 | Growth Rate ([1]; 6 h, replicate number 1): -0.08; Growth Rate ([2]; 24 h, replicate number 2): 0.38; Growth Rate ([3]; 6 h, replicate number 1): -0.14 |
| CC[C@H](CC(=O)O)n1c(=O)c2ncccc2n(Cc2cn(C)c3cc(C)cc(C)c23)c1=O [BI-1942] | 0.83 and 0.8 | 0.75 and 0.86 | 0.58 | 0.7 and 1 | 0.86 and 0.92 | 0.71 and 0.98 | 0.84 | 0.52 | 0.45 | – | 0.65 | 0.23 and 0.17 | 0.64 and 0.67 | 0.25 and 0.31 | 0.47 and 0.65 | 0.61 and 0.75 | 0.67 and 0.73 | 0.94 | – | 0.52 | Growth Rate ([1]; 0 h, replicate number 2): 0; Growth Rate ([1]; 6 h, replicate number 1): 0.14; Growth Rate ([2]; 0 h, replicate number 1): 0.47 and 0.69; Growth Rate ([2]; 0 h, replicate number 2): 0.8; Growth Rate ([2]; 6 h, replicate number 2): 0.74; Growth Rate ([2]; 24 h, replicate number 2): 0.61; Growth Rate ([3]; 0 h, replicate number 2): -0.53; Growth Rate ([3]; 12 h, replicate number 2): 0.58 |
| COc1ccccc1-n1nc(C2CC(C)(C)OC(C)(C)C2)cc1-c1ccc(Cl)cc1 | – | -0.27 | 0.87 | – | – | 0.93 | 0.96 | – | -0.13 | 0.46 | 0.64 | -1 | 0.99 | – | 0.85 | 0.94 | 0.94 | 0.79 | 0.95 | 0.54 | Growth Rate ([1]; 0 h, replicate number 1): -0.49; Growth Rate ([2]; 0 h, replicate number 2): -0.66; Growth Rate ([2]; 6 h, replicate number 2): 0.41; Growth Rate ([2]; 24 h, replicate number 2): 0.95; Growth Rate ([3]; 6 h, replicate number 1): -0.05; Growth Rate ([3]; 12 h, replicate number 2): 0.41 |
| O=c1cccc2n1C[C@@H]1CNC[C@H]2C1 [CYTISINICLINE] | -0.82 | – | 0.88 | 0.51 | 0.81 | 0.94 | 0.99 | – | 0.9 | 0.46 | 0.99 | -0.4 | 0.99 | – | 0.79 | 0.97 | 0.99 | 0.79 | 0.88 | 0.92 | Growth Rate ([3]; 12 h, replicate number 2): 0.75 |
| CN(C)C/C=C/C(=O)Nc1cc2c(Nc3ccc(F)c(Cl)c3)ncnc2cc1OC[C@@H]1CCCO1 | -0.37 | -0.32 | -0.29 | -0.26 | -0.29 | -0.07 | -0.08 | – | -0.55 | -0.36 | -0.22 | -0.39 | -0.36 | -0.2 | -0.23 | -0.23 | -0.17 | -0.27 | -0.2 | -0.29 | Growth Rate ([1]; 0 h, replicate number 2): 0.77; Growth Rate ([1]; 6 h, replicate number 1): -0.42; Growth Rate ([2]; 0 h, replicate number 2): 0.7; Growth Rate ([2]; 6 h, replicate number 2): -0.14; Growth Rate ([2]; 24 h, replicate number 2): -0.19; Growth Rate ([3]; 6 h, replicate number 1): -0.57; Growth Rate ([3]; 12 h, replicate number 2): -0.34 |
